Tests used:
[1] = Antitumor activity against mouse CA-755 cells implanted in mouse assessed as tumor growth inhibition at 40 mg/kg, ip dosed daily for 5 days measured 12 days after treatment termination; type: functional; conditions: CA-755, ip, route intraperitoneal, read-out: TGI
SR = experiment: Growth inhibition of human SR cells; type: functional
Mus musculus [2] = experiment: Toxicity in mouse P388 cells implanted mouse assessed as mean spleen weight at 40 mg/kg, ip dosed daily for 5 days administered 24 hrs after tumor implantation; type: organism-based; set-up: dose 40 mg/kg, route intraperitoneal; conditions: in vivo
[3] = Growth inhibition of human UO31 cells; type: functional
HT-29 = experiment: Growth inhibition of human HT-29 cells; type: functional
Mus musculus [4] = experiment: Toxicity in mouse P388 cells implanted mouse assessed as mean ascites volume at 20 mg/kg, ip dosed daily for 5 days administered 24 hrs after tumor implantation; type: organism-based; set-up: dose 20 mg/kg, route intraperitoneal; conditions: in vivo
SF-268 = experiment: Growth inhibition of human SF268 cells; type: functional
Mus musculus [5] = experiment: Toxicity in mouse P388 cells implanted mouse assessed as mouse mortality at 10 mg/kg, ip dosed daily for 5 days administered 24 hrs after tumor implantation; type: organism-based; set-up: dose 10 mg/kg, route intraperitoneal; conditions: in vivo
Mus musculus [6] = experiment: Toxicity in mouse P388 cells implanted mouse assessed as mouse mortality at 20 mg/kg, ip dosed daily for 5 days administered 24 hrs after tumor implantation; type: organism-based; set-up: dose 20 mg/kg, route intraperitoneal; conditions: in vivo
[7] = Antitumor activity against mouse CA-755 cells implanted in mouse assessed as increase in life span at 40 mg/kg, ip dosed daily for 5 days; type: functional; conditions: CA-755, ip, 120 h, route intraperitoneal
Mus musculus [8] = experiment: Toxicity in mouse P388 cells implanted mouse assessed as mean ascites volume at 40 mg/kg, ip dosed daily for 5 days administered 24 hrs after tumor implantation; type: organism-based; set-up: dose 40 mg/kg, route intraperitoneal; conditions: in vivo
SK-OV-3 = experiment: Growth inhibition of human SKOV3 cells; type: functional
MDA-MB-435 = experiment: Growth inhibition of human MDA-MB-435 cells; type: functional
[9] = Growth inhibition of human OVCAR4 cells; type: functional, OVCAR-4
[10] = Growth inhibition of human RPMI8226 cells; type: functional, RPMI-8226
NCI-H23 = experiment: Growth inhibition of human NCI-H23 cells; type: functional
MDA-MB-468 = experiment: Growth inhibition of human MDA-MB-468 cells; type: functional
[11] = test system: Lewis lung carcinoma cell line; experiment: Antitumor activity against mouse LLC cells implanted in mouse assessed as tumor growth inhibition at 40 mg/kg, ip dosed daily for 5 days measured 8 to 9 days after treatment termination; type: functional; conditions: route intraperitoneal, read-out: TGI
NCI-H460 = experiment: Growth inhibition of human NCI-H460 cells; type: functional
CAKI-1 = experiment: Growth inhibition of human CAKI-1 cells; type: functional
[12] = Growth inhibition of human OVCAR8 cells; type: functional, OVCAR-8
SK-MEL-5 = experiment: Growth inhibition of human SK-MEL-5 cells; type: functional
Mus musculus [13] = experiment: Toxicity in mouse P388 cells implanted mouse assessed as mean spleen weight at 20 mg/kg, ip dosed daily for 5 days administered 24 hrs after tumor implantation; type: organism-based; set-up: dose 20 mg/kg, route intraperitoneal; conditions: in vivo
786-0 = experiment: Growth inhibition of human 786-0 cells; type: functional
[14] = Antitumor activity against mouse Ehrlich carcinoma cells implanted in mouse assessed as increase in life span at 50 mg/kg, ip dosed daily for 5 days administered 48 hrs after tumor implantation; type: functional; conditions: route intraperitoneal
[15] = Growth inhibition of human OVCAR3 cells; type: functional
NCI-H322M = experiment: Growth inhibition of human NCI-H322M cells; type: functional
[16] = Growth inhibition of human HCT116 cells; type: functional
[17] = test system: Lewis lung carcinoma cell line; experiment: Antitumor activity against mouse LLC cells implanted in mouse assessed as tumor growth inhibition at 40 mg/kg, ip dosed daily for 5 days measured 1 day after treatment termination; type: functional; conditions: route intraperitoneal, read-out: TGI
[18] = Growth inhibition of human HCC2998 cells; type: functional
[19] = Growth inhibition of human OVCAR5 cells; type: functional
[20] = Antitumor activity against mouse CA-755 cells implanted in mouse assessed as tumor growth inhibition at 40 mg/kg, ip dosed daily for 5 days measured 1 day after treatment termination; type: functional; conditions: CA-755, ip, route intraperitoneal, read-out: TGI
[21] = Antitumor activity against mouse AKATOL cells implanted in mouse assessed as tumor growth inhibition at 40 mg/kg, ip dosed daily for 5 days measured 5 days after treatment termination; type: functional; conditions: 120 h, route intraperitoneal, read-out: TGI
M14 = experiment: Growth inhibition of human M14 cells; type: functional
[22] = Growth inhibition of human MOLT4 cells; type: functional
[23] = Growth inhibition of human HOP92 cells; type: functional
[24] = Growth inhibition of human NCI-ADR-RES cells; type: functional
P388 = experiment: Antitumor activity against mouse P388 cells implanted in mouse assessed as increase in life span at 60 mg/kg, ip dosed daily for 5 days administered 24 hrs after tumor implantation; type: functional; conditions: route intraperitoneal
[25] = Growth inhibition of human Hs 578T cells; type: functional
Mus musculus [26] = experiment: Toxicity in mouse P388 cells implanted mouse assessed as mean ascites volume at 60 mg/kg, ip dosed daily for 5 days administered 24 hrs after tumor implantation; type: organism-based; set-up: dose 60 mg/kg, route intraperitoneal; conditions: in vivo
NCI-H522 = experiment: Growth inhibition of human NCI-H522 cells; type: functional
[27] = read-out: pLC50 (the source's name) (converted)

SMILES: COC(=O)[C@]1(C)CCC[C@]2(C)[C@H]3C[C@H]4C(C(C)C)=C[C@]3(CC[C@H]21)[C@@H]1/C(=N/O)CC/C(=N\O)[C@@H]14
- inhibition in vivo at 40 mg/kg [1]: 35%
- GI50 (SR): 2 µM
- CC50 (SR; [27]): 25.1 µM
- TGI (SR; read-out: pTGI (converted)): 4.79 µM
- Activity (Mus musculus [2]): 212 mg
- GI50 ([3]; UO-31): 4.9 µM
- CC50 ([3]; UO-31, read-out: pLC50 (the source's name) (converted)): 75.9 µM
- TGI ([3]; UO-31, read-out: pTGI (converted)): 20.9 µM
- GI50 (HT-29): 2.69 µM
- CC50 (HT-29; [27]): 52.5 µM
- TGI (HT-29; read-out: pTGI (converted)): 7.94 µM
- Activity (Mus musculus [4]): 0.57 mL
- GI50 (SF-268): 4.37 µM
- CC50 (SF-268; [27]): 55 µM
- TGI (SF-268; read-out: pTGI (converted)): 17 µM
- Activity (Mus musculus [5]): Non-toxic
- Activity (Mus musculus [6]): Non-toxic
- ILS at 40 mg/kg [7]: 11%
- Activity (Mus musculus [8]): 1.2 mL
- GI50 (SK-OV-3): 10.2 µM
- CC50 (SK-OV-3; [27]): 47.9 µM
- TGI (SK-OV-3; read-out: pTGI (converted)): 22.4 µM
- GI50 (MDA-MB-435): 4.9 µM
- CC50 (MDA-MB-435; [27]): 95.5 µM
- TGI (MDA-MB-435; read-out: pTGI (converted)): 23.4 µM
- GI50 ([9]; OVCAR-4): 3.55 µM
- CC50 ([9]; OVCAR-4, read-out: pLC50 (converted)): > 100 µM
- TGI ([9]; OVCAR-4, read-out: pTGI (converted)): 19.1 µM
- GI50 ([10]; RPMI-8226): 2.09 µM
- CC50 ([10]; RPMI-8226, read-out: pLC50 (converted)): > 100 µM
- TGI ([10]; RPMI-8226, read-out: pTGI (converted)): 4.79 µM
- GI50 (NCI-H23): 3.72 µM
- CC50 (NCI-H23; [27]): 93.3 µM
- TGI (NCI-H23; read-out: pTGI (converted)): 15.8 µM
- GI50 (MDA-MB-468): 4.68 µM
- CC50 (MDA-MB-468; [27]): 64.6 µM
- TGI (MDA-MB-468; read-out: pTGI (converted)): 20 µM
- inhibition in vivo at 40 mg/kg [11]: 20%
- GI50 (NCI-H460): 2.29 µM
- CC50 (NCI-H460; [27]): 46.8 µM
- TGI (NCI-H460; read-out: pTGI): 5.25 µM
- GI50 (CAKI-1; CAKI-1): 7.08 µM
- CC50 (CAKI-1; CAKI-1, read-out: pLC50 (converted)): > 100 µM
- TGI (CAKI-1; CAKI-1, read-out: pTGI (converted)): 32.4 µM
- GI50 ([12]; OVCAR-8): 3.24 µM
- CC50 ([12]; OVCAR-8, read-out: pLC50 (converted)): > 100 µM
- TGI ([12]; OVCAR-8, read-out: pTGI (converted)): 12.6 µM
- GI50 (SK-MEL-5): 3.09 µM
- CC50 (SK-MEL-5; [27]): 36.3 µM
- TGI (SK-MEL-5; read-out: pTGI (converted)): 11.5 µM
- Activity (Mus musculus [13]): 101 mg
- GI50 (786-0): 5.75 µM
- CC50 (786-0; [27]): 53.7 µM
- TGI (786-0; read-out: pTGI (converted)): 19.5 µM
- ILS at 50 mg/kg [14]: -3%
- GI50 ([15]; OVCAR-3): 2.4 µM
- CC50 ([15]; OVCAR-3, read-out: pLC50 (the source's name) (converted)): 15.8 µM
- TGI ([15]; OVCAR-3, read-out: pTGI (converted)): 5.37 µM
- GI50 (NCI-H322M): 2.69 µM
- CC50 (NCI-H322M; [27]): 20.9 µM
- TGI (NCI-H322M; read-out: pTGI (converted)): 6.17 µM
- GI50 ([16]; HCT-116): 2.75 µM
- CC50 ([16]; HCT-116, read-out: pLC50 (the source's name) (converted)): 47.9 µM
- TGI ([16]; HCT-116, read-out: pTGI (converted)): 8.51 µM
- inhibition in vivo at 40 mg/kg [17]: 47%
- GI50 ([18]; HCC 2998): 2.75 µM
- CC50 ([18]; HCC 2998, read-out: pLC50 (the source's name) (converted)): 33.1 µM
- TGI ([18]; HCC 2998, read-out: pTGI (converted)): 6.46 µM
- GI50 ([19]; OVCAR-5): 5.62 µM
- CC50 ([19]; OVCAR-5, read-out: pLC50 (the source's name) (converted)): 63.1 µM
- TGI ([19]; OVCAR-5, read-out: pTGI (converted)): 20 µM
- inhibition in vivo at 40 mg/kg [20]: 83%
- inhibition in vivo at 40 mg/kg [21]: 60%
- GI50 (M14): 5.25 µM
- CC50 (M14; [27]): 55 µM
- TGI (M14; read-out: pTGI (converted)): 18.6 µM
- GI50 ([22]; MOLT-4): 1.86 µM
- CC50 ([22]; MOLT-4, read-out: pLC50 (the source's name) (converted)): 33.9 µM
- TGI ([22]; MOLT-4, read-out: pTGI (converted)): 6.31 µM
- GI50 ([23]; HOP-92): 2.09 µM
- CC50 ([23]; HOP-92, read-out: pLC50 (the source's name) (converted)): 39.8 µM
- TGI ([23]; HOP-92, read-out: pTGI (converted)): 5.01 µM
- GI50 [24]: 3.16 µM
- CC50 ([24]; read-out: pLC50 (converted)): > 100 µM
- TGI ([24]; read-out: pTGI (converted)): 9.55 µM
- ILS at 60 mg/kg (P388): -10%
- GI50 [25]: 0.01 µM
- CC50 [25, 27]: 11.2 µM
- TGI ([25]; read-out: pTGI (converted)): 2.04 µM
- Activity (Mus musculus [26]): 0.6 mL
- GI50 (NCI-H522): 3.8 µM
- CC50 (NCI-H522; [27]): 93.3 µM
- TGI (NCI-H522; read-out: pTGI (converted)): 17.8 µM

Reference: ChEMBL document CHEMBL3352746, “Synthesis and anticancer activity of quinopimaric and maleopimaric acids’ derivatives” (Bioorg Med Chem, 2014)
